Among the data in US12172989B2, “Histone acetyltransferase (HAT) inhibitor and use thereof” (SHANGHAI INSTITUTE OF MATERIA MEDICA, CHINESE ACADEMY OF …, priority 2018, dated 2024) are IC50 values, retold here.

pIC50: −log10 of the molar value.

In this test the target is T1, histone acetyltransferase p300 (Homo sapiens, UniProt Q09472).
T1 construct: purchased BPS Corporation 50071
T1 sequence (Q09472 1284-1673 limits assumed): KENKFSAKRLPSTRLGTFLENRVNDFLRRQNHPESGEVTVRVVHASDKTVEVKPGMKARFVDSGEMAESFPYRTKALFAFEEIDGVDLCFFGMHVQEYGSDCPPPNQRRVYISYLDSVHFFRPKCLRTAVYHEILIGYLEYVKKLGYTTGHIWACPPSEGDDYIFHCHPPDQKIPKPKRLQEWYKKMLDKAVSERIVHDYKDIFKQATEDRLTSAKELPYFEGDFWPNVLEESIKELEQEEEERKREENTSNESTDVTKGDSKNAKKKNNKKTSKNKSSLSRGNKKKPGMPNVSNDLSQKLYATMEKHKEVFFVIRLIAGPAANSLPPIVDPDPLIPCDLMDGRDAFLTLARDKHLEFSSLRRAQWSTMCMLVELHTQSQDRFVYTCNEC
Description: Histone acetyltransferase (p300) activity assay (radioisotope, [3H]-Ac-CoA). It is filed as biochemical. Particulars: p300 0.05 nM; histone peptide 600 nM, [3H]-Ac-CoA 250 nM; 60 min at room temperature; read-out: Inhibition rate IC50. The protocol:
The reaction was finally terminated with Ac-CoA (Sigma, Cat. No. A2056) without isotope labeling. If the activity of the acetyltransferase p300 was inhibited, the isotope signal cannot be detected on the substrate polypeptide. Therefore, the inhibitory activity of the compound against the acetyltransferase p300 was evaluated.
In the enzyme reaction system, 200 nL of a diluted compound (100% DMSO) was first transferred to a test plate using Echo, where the final concentration of the compound in the enzyme reaction system ranges from 0.25 to 5000 nM. Then 10 μL/well of p300 protein (final concentration of 0.05 nM) was transferred therein, and incubated with the compound for 15 min at room temperature. Then 10 μL/well of a substrate mixture (final concentrations of histone peptide and [^3H]—Ac-CoA were 600 nM and 250 nM, respectively) was added to start the enzyme-catalyzed reaction, and incubated at room temperature for 60 min. Then 10 µL/well of a 250 μM cold Ac-CoA solution was added to stop the reaction. Finally 25 μL/well of the reaction solution was transferred to a 384-well Flashplate (Perkin Elmer, Cat. No. SMP410A001PK), and incubated at room temperature for 1 h. The resultant was washed with double distilled water+0.1% Tween-20 three times. The signal value was read by using Microbeta. The data was analyzed by using GraphPad Prism 5.0 software to obtain IC50.
`CNC(=O)Nc1ccc2c(c1)CC[C@@]21OC(=O)N(CC(=O)N2Cc3cccnc3CC[C@H]2C2CC2)C1=O` [SYY-B081-2]: the negative-log IC50 (pIC50) was 8.17.
For the compound `CNC(=O)Nc1ccc2c(c1)CCC21NC(=O)N(CC(=O)N2Cc3cc(F)c(F)cc3CC[C@H]2C2CC2)C1=O` (stereo partly shown) [SYY-B088], the pIC50 was over 8.00.
With `CNC(=O)Nc1ccc2c(c1)CC[C@]21OC(=O)N(CC(=O)N2Cc3cc(F)c(F)cc3CC[C@H]2C2CC2)C1=O` [SYY-B090-1], the pIC50 was 8.86.
The value for `CNC(=O)Nc1ccc2c(c1)CC[C@@]21OC(=O)N(CC(=O)N2Cc3cc(F)c(F)cc3CC[C@H]2C2CC2)C1=O` [SYY-B090-2] was 8.80.
The value for `Cn1cc(-c2ccc3c(c2)CCCC32OC(=O)N(CC(=O)N3Cc4cc(F)ccc4OC[C@H]3C3CC3)C2=O)cn1` (stereo partly shown) [SYY-B094] was over 7.00; that for `CNC(=O)Nc1ccc2c(c1)CC[C@]21OC(=O)N(CC(=O)N2Cc3ncccc3CC[C@H]2C2CC2)C1=O` [SYY-B095-1] was 7.93.
To `CNC(=O)Nc1ccc2c(c1)CC[C@@]21OC(=O)N(CC(=O)N2Cc3ncccc3CC[C@H]2C2CC2)C1=O` [SYY-B096-2] belongs 8.13; to `CNC(=O)Nc1ccc2c(c1)CC[C@]21OC(=O)N(CC(=O)N2Cc3ccncc3CC[C@H]2C2CC2)C1=O` [SYY-B097-1], 7.37.
For the compound `CNC(=O)Nc1ccc2c(c1)CC[C@@]21OC(=O)N(CC(=O)N2Cc3ccncc3CC[C@H]2C2CC2)C1=O` [SYY-B097-2], the pIC50 was 8.40.
To `CNC(=O)Nc1ccc2c(c1)CC[C@]21OC(=O)N(CC(=O)N2Cc3sccc3OC[C@H]2C2CC2)C1=O` [SYY-B100-1] belongs 7.69; to `CNC(=O)Nc1ccc2c(c1)CC[C@@]21OC(=O)N(CC(=O)N2Cc3sccc3OC[C@H]2C2CC2)C1=O` [SYY-B100-2], 7.77; to `CNC(=O)Nc1ccc2c(c1)CC[C@]21OC(=O)N(CC(=O)N2Cc3ccsc3CC[C@H]2C2CC2)C1=O` [SYY-B102-1], 7.86.
The value for `CNC(=O)Nc1ccc2c(c1)CC[C@@]21OC(=O)N(CC(=O)N2Cc3ccsc3CC[C@H]2C2CC2)C1=O` [SYY-B102-2] was 9.26.
The value for `CNC(=O)Nc1ccc2c(c1)CCC21NC(=O)N(CC(=O)N2Cc3ccsc3CC[C@H]2C2CC2)C1=O` (stereo partly shown) [SYY-B104] was over 7.70; that for `CNC(=O)Nc1ccc2c(c1)COCC21NC(=O)N(CC(=O)N2Cc3cc(F)ccc3OC[C@H]2C2CC2)C1=O` (stereo partly shown) [SYY-B106] was over 7.70.
As to `CNC(=O)Nc1ccc2c(c1)CCC21NC(=O)N(CC(=O)N2Cc3sccc3OC[C@H]2C2CC2)C1=O` (stereo partly shown) [SYY-B108], the pIC50 was over 7.30.
The value for `Cn1cc(-c2ccc3c(c2)OCC32NC(=O)N(CC(=O)N3Cc4cc(F)ccc4OC[C@H]3C3CC3)C2=O)cn1` (stereo partly shown) [SYY-B110] was over 8.00; that for `CNC(=O)Nc1ccc2c(c1)COCC21OC(=O)N(CC(=O)N2Cc3cc(F)ccc3OC[C@H]2C2CC2)C1=O` (stereo partly shown) [SYY-B112] was over 8.00; that for `CNC(=O)Nc1ccc2c(c1)CC[C@]21OC(=O)N(CC(=O)N2Cc3sc(C)c(C)c3CC[C@H]2C2CC2)C1=O` [SYY-B116-1] was 6.85.
To `CNC(=O)Nc1ccc2c(c1)CC[C@@]21OC(=O)N(CC(=O)N2Cc3sc(C)c(C)c3CC[C@H]2C2CC2)C1=O` [SYY-B116-2] belongs 8.70.
To `CNC(=O)Nc1ccc2c(c1)CC[C@@]21OC(=O)N(CC(=O)N2Cc3sc(C)c(C)c3OC[C@H]2C2CC2)C1=O` [SYY-B118-2] belongs 8.18; to `CNC(=O)Nc1ccc2c(c1)CCC21NC(=O)N(CC(=O)N2Cc3ccsc3OC[C@H]2C2CC2)C1=O` (stereo partly shown) [SYY-B122], over 8.00; to `CNC(=O)Nc1ccc2c(c1)CCC21NC(=O)N(CC(=O)N2Cc3sccc3CC[C@H]2C2CC2)C1=O` (stereo partly shown) [SYY-B124], over 7.70.
For `CNC(=O)Nc1ccc2c(c1)CC[C@@]21OC(=O)N(CC(=O)N2Cc3sccc3CC[C@H]2C2CC2)C1=O` [SYY-B126-2], the pIC50 is 9.30.
Regarding `Cn1cc(-c2ccc3c(c2)S(=O)(=O)C[C@]32NC(=O)N(CC(=O)N3Cc4cc(F)ccc4OC[C@H]3C(F)(F)F)C2=O)cn1` [SYY-B130], the pIC50 is over 8.00.

What is called pIC50 is the negative decadic logarithm of the IC50, by convention in mol/L.
